The source of these data is ChEMBL document CHEMBL5338810, “Targeting Pancreatic Cancer with Novel Plumbagin Derivatives: Design, Synthesis, Molecular Mechanism, In Vitro and In Vivo Evaluation” (J Med Chem, 2023).

Active and inactive are the calls of the source. The calls are words filed in the database; no cut-off is given here.

Series [1] deals with PANC-1. Description: Cytotoxicity against human PANC-1 cells in Dulbecco's modified Eagle's medium assessed as reduction in cell viability incubated for 24 hrs by WST-8 cell counting analysis. In kind it is functional, cell-based. The note with it: PANC-1, 24 h. In general terms: Tetrazolium dyes change colour on reduction, which living cells bring about.
A short description of series [2]: Selectivity ratio, ratio of IC50 for cytotoxicity against human PANC-1 cells in Dulbecco's modified Eagle's medium to PC50 for preferential cytotoxic activity against human PANC-1 cells in nutrient-deprived medium. In kind it is functional.
Series [3] has as its system PANC-1. As to the kind of experiment: Preferential cytotoxic activity against human PANC-1 cells in nutrient-deprived medium assessed as reduction in cell viability incubated for 24 hrs by WST-8 cell counting analysis. In kind it is functional.
The subject of series [4] is MIA PaCa-2. Description: Antitumor activity against human MIA PaCa-2 cells xenografted in athymic BALB/c-nu mouse assessed as reduction in mean tumor volume at 50 ug, ip administered 5 times per week for 4 weeks and measured on day 32 (reference value: 1642 mm3). In kind it is functional. The note with it: dose 50 µg. (In general: Xenograft models place foreign cells or tissue in a host animal.)

For series [5], the system named is MIA PaCa-2. As to the kind of experiment: Antitumor activity against human MIA PaCa-2 cells xenografted in athymic BALB/c-nu mouse assessed as reduction in average mean wet weight at 50 ug, ip administered 5 times per week for 4 weeks and measured on day 32 (reference value: 465.4 mg). In kind it is functional. The note with it: dose 50 µg.
Series [6] is described as follows: Toxicity in athymic BALB/c-nu mouse xenografted with human MIA PaCa-2 cells assessed as changes in body weight at 50 to 250 ug, ip administered 5 times per week for 4 weeks and measured twice weekly. Format: organism-based. As to conditions: in vivo, 672 h, dose 50-250 µg.
Series [7] relates to MIA PaCa-2. As to the kind of experiment: Antitumor activity against human MIA PaCa-2 cells xenografted in athymic BALB/c-nu mouse assessed as reduction in mean tumor volume at 250 ug, ip administered 5 times per week for 4 weeks and measured on day 18 (reference value: 447 mm3). As to conditions: dose 250 µg. In kind it is functional.
Series [8] relates to PANC-1. Description: Disruption of plasma membrane integrity in human PANC-1 cells in nutrient-deprived medium assessed as membrane blebs by measuring increase in red fluorescence at 1 uM incubated for 24 hrs by dual fluorescent staining based microscopic analysis. Format: functional, cell-based.
Series [9] concerns MIA PaCa-2. Description: Antitumor activity against human MIA PaCa-2 cells xenografted in athymic BALB/c-nu mouse assessed as reduction in blood vessels at 50 to 250 ug, ip administered 5 times per week for 4 weeks. Format: functional, organism-based. As to conditions: dose 50-250 µg.
The nature of series [10]: Toxicity in athymic BALB/c-nu mouse xenografted with human MIA PaCa-2 cells assessed as survival at 50 to 250 ug, ip administered 5 times per week for 4 weeks. In kind it is organism-based. As to conditions: in vivo, 672 h, dose 50-250 µg.
A short description of series [11]: Inhibition of PI3K/Akt/mTOR signaling pathway in human PANC-1 cells in nutrient-deprived medium at 0.5 to 10 uM by Western blotting analysis. The note with it: dose 0.5-10 µM, time 3-6 hrs, TDE = time-dependent effect. In kind it is cell-based. In general terms: A western blot detects proteins with antibodies after separation by electrophoresis.
Series [12] concerns PANC-1. As to the kind of experiment: Disruption of plasma membrane integrity in human PANC-1 cells in nutrient-deprived medium assessed as leakage of cellular contents by measuring increase in red fluorescence at 1 uM incubated for 24 hrs by dual fluorescent staining based microscopic analysis. Format: functional, cell-based.
Series [13] can be described thus: Inhibition of PI3K/Akt/mTOR signaling pathway in human PANC-1 cells in nutrient-deprived medium assessed as redution in Akt phosphorylation at 0.5 to 10 uM incubated for 3 hrs by Western blotting analysis. Format: cell-based. As to conditions: dose 0.5-10 µM.
For series [14], the system named is MIA PaCa-2. Description: Antitumor activity against human MIA PaCa-2 cells xenografted in athymic BALB/c-nu mouse assessed as changes in gross appearance of tumor at 50 to 250 ug, ip administered 5 times per week for 4 weeks. In kind it is functional, organism-based. As to conditions: dose 50-250 µg.
Series [15] deals with MIA PaCa-2. Description: Antitumor activity against human MIA PaCa-2 cells xenografted in athymic BALB/c-nu mouse assessed as reduction in mean tumor volume at 50 ug, ip administered 5 times per week for 4 weeks and measured on day 18 (reference value: 447 mm3). Format: functional. The note with it: dose 50 µg.
In series [16] the test system is PANC-1. As to the kind of experiment: Disruption of plasma membrane integrity in human PANC-1 cells in nutrient-deprived medium assessed as rounded cell morphology by measuring increase in red fluorescence at 1 uM incubated for 24 hrs by dual fluorescent staining based microscopic analysis. Format: functional.
Series [17] relates to MIA PaCa-2. As to the kind of experiment: Antitumor activity against human MIA PaCa-2 cells xenografted in athymic BALB/c-nu mouse assessed as reduction in average mean wet weight at 250 ug, ip administered 5 times per week for 4 weeks and measured on day 32 (reference value: 465.4 mg). In kind it is functional. The note with it: dose 250 µg.
Series [18] is described as follows: Inhibition of PI3K/Akt/mTOR signaling pathway in human PANC-1 cells in nutrient-deprived medium incubated for 3 to 6 hrs by Western blotting analysis. Format: cell-based. The note with it: dose 0.5-10 µM, time 3-6 hrs.
A short description of series [19]: Toxicity in athymic BALB/c-nu mouse xenografted with human MIA PaCa-2 cells assessed as changes in abdominal organs at 50 to 250 ug, ip administered 5 times per week for 4 weeks. As to conditions: in vivo, 672 h, dose 50-250 µg. Format: organism-based.
In series [20] the test system is PANC-1. Description: Disruption of plasma membrane integrity in human PANC-1 cells in nutrient-deprived medium assessed as rupture of the cell membrane by measuring increase in red fluorescence at 1 uM incubated for 24 hrs by dual fluorescent staining based microscopic analysis. In kind it is functional.
Series [21] concerns MIA PaCa-2. As to the kind of experiment: Antitumor activity against human MIA PaCa-2 cells xenografted in athymic BALB/c-nu mouse assessed as reduction in mean tumor volume at 250 ug, ip administered 5 times per week for 4 weeks and measured on day 32 (reference value: 1642 mm3). In kind it is functional. As to conditions: dose 250 µg.

Broadly, the IC50 is the midpoint of a concentration-inhibition curve. For the molecule `CCC1=CC(=O)c2c(OC)cccc2C1=O`, the IC50 in the series with PANC-1 [1] stood at 103 µM. Further, the Ratio in [2] stood at 4.86. For the same molecule, in the series on PANC-1 [3], the PC50 is 21.2 µM.
On the same counts, the results for `CCC1=CC(=O)c2cccc(O)c2C1=O` are 8.56 µM, 8.2 and 1.05 µM.
On the same counts, the results for `Cc1ccc(CC2=CC(=O)c3ccccc3C2=O)cc1` are 76.2 µM, 16.3 and 4.67 µM.
In the case of `CCC1=CC(=O)c2c(O)cccc2C1=O`, in the series with PANC-1 [1], the half-maximal inhibitory concentration (IC50) was determined as 31.6 µM. Besides, the Ratio in [2] came out at 21.6. Besides, in the series with PANC-1 [3], the PC50 came out at 1.46 µM.
The matching figures for `O=C1C=C(CC2CCCCC2)C(=O)c2ccccc21`: 66.9 µM, 69.9 and 0.96 µM.
As for `CCCC1=CC(=O)c2ccccc2C1=O`, the IC50 in the series with PANC-1 [1] was found to be 39.1 µM. In series [2], the Ratio was determined as 11. In addition, the PC50 in the series with PANC-1 [3] was 3.55 µM.
The matching figures for `CC(C)CC1=CC(=O)c2c(O)cccc2C1=O`: 12.9 µM, 33.1 and 0.39 µM.
On to `O=C1C(CC2CCCC2)=CC(=O)c2c(O)cccc21`, for which the half-inhibitory concentration (IC50) in the series with PANC-1 [1] was 8.4 µM. Besides, the Ratio in series [2] came to 21. Further, the PC50 with PANC-1 [3] turned out to be 0.4 µM.
On the same counts, the results for `CC1=CC(=O)c2c(O)cccc2C1=O` [PLUMBAGIN] are 23.7 µM, 15.4 and 1.54 µM.
Regarding `O=C1C(CC2CCCCCC2)=CC(=O)c2c(O)cccc21`, the IC50 in the series on PANC-1 [1] is 4.22 µM. In addition, the Ratio in series [2] is listed as 5.41. The PC50 with PANC-1 [3] turned out to be 0.78 µM.
On the same counts, the results for `CCCC1=CC(=O)c2c(O)cccc2C1=O` are 15.6 µM, 34.7 and 0.45 µM.
The matching figures for `CCC1=CC(=O)c2ccccc2C1=O`: 39.7 µM, 33.1 and 1.2 µM.
On the same counts, the results for `O=C1C=C(Cc2cccc(Cl)c2)C(=O)c2ccccc21` are 46.7 µM, 16.4 and 2.84 µM.
Turning to `O=C1C=C(CC2CCCCC2)C(=O)c2c(O)cccc21`, the 50% inhibitory concentration (IC50) with PANC-1 [1] is 31.9 µM. Moreover, the Ratio in [2] is reported as 42.9. In addition, the PC50 with PANC-1 [3] worked out at 0.74 µM.
On to `O=C1C(CC2CCCCC2)=CC(=O)c2c(O)cccc21`, for which the Activity in the series on MIA PaCa-2 [4] is on record as 763 mm3; in the series with MIA PaCa-2 [5], 205.8 mg; in series [6], “Non-Toxic”; in the series with MIA PaCa-2 [7] it was 166 mm3; in series [10] it was “Non-Toxic”; with MIA PaCa-2 [15] it was 210 mm3. The values for the Activity (with MIA PaCa-2 [17]; in [19]; in the series on MIA PaCa-2 [21]) were 107.6 mg, “Non-Toxic” and 446 mm3, respectively. Besides, the outcome in the series with PANC-1 [8], in the series with MIA PaCa-2 [9], in the series with PANC-1 [12], in the series on MIA PaCa-2 [14], in the series on PANC-1 [16] and in the series with PANC-1 [20] was Active. The inhibition entry in series [11] was “Tde”; in series [18], “Dose-Dependent Effect”. Besides, in the series on PANC-1 [1], the IC50 came out at 47.2 µM. For the same molecule, in series [13], the inhibition entry is “Active”. Also, the Ratio in [2] is 429. Also, the PC50 in the series on PANC-1 [3] came out at 0.11 µM.
